From publication PMC6923382, “Small molecules that inhibit TNF signalling by stabilising an asymmetric form of the trimer” (Nature Communications, 2019)
Several values for one entry are separate records, joined by “and”; a condition that tells them apart may be missing. Equal values may be shown once.

Columns and labels:
mouse TNF = biological target: T1, mouse TNF (Mus musculus, UniProt P06804); assay: Mouse TNF induced neutrophil recruitment in vivo; details: Etanercept 30 mg/kg i.v.; mouse TNF; individual mice
T1 construct: stabilise an asymmetrical form of the soluble TNF trimer
T1 sequence (P06804 80-235 limits assumed): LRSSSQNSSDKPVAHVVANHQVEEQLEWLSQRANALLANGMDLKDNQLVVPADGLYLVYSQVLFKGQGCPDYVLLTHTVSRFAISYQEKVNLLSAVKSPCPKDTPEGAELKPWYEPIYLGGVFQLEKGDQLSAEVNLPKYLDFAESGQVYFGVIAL
Description: All in vivo studies were reviewed by an internal Ethical Review Body (ERB) and conducted in accordance with the Animals (Scientific Procedures) Act 1986, EU Directive 2010/63/EU. […] Anti-TNFα biologics, CDP571[21] (10 mg/kg) and etanercept (30 mg/kg), diluted in PBS, were dosed intravenously prior to human and mouse TNF challenge. Two hours after the TNF challenge, mice were sacrificed and the peritoneal cavity lavaged with 3 mL of FACS buffer. An aliquot (0.3 mL) of lavage fluid was used to assess the number CD45^+GR1^+ cells by flow cytometry. Briefly, the cells were treated with ACK lysis buffer, washed and suspended in FACS buffer prior to staining with FITC anti-mouse CD45 and PE anti-mouse GR1. Data are shown as mean ± standard error of the number of CD45^+GR-1^+ cells. Statistical significance (*p < 0.05, **p < 0.01, ****p < 0.0001) was determined using one-way ANOVA with Dunnett’s multiple comparison test.

hTNF/hTNFR1 complex = biological target: T2, hTNF/hTNFR1 complex (Homo sapiens, UniProt P01375); assay: Analytical size exclusion chromatography of TNF:TNFR1 stoichiometry; format: biochemical
T2 construct: stabilise an asymmetrical form of the soluble TNF trimer; host or cells: BV (baculovirus) for hTNFR1
T2 sequence (P01375 77-233 limits assumed): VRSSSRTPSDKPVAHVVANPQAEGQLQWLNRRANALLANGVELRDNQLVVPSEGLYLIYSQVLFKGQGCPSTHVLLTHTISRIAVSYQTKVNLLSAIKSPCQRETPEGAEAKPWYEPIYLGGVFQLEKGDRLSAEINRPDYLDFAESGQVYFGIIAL
T2 sequence (P19438 43-184 partner limits assumed): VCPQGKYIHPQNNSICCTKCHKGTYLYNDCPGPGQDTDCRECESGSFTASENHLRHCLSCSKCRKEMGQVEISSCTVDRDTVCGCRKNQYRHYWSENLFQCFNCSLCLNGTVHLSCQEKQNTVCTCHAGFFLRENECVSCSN
Description: A stock of compound bound to human (h) TNF was prepared by pre-incubating hTNF (300 μM, molecular weight based on the homotrimer) overnight at 4 °C with UCB-5307 at a final concentration range from 90 μM to 690 μM, maintaining a constant DMSO concentration of 1%. The compound-bound hTNF was incubated for 1 h at 22 °C with hTNFR1 at a 3.2-fold molar excess over homotrimers (final concentrations: hTNFR1 240 μΜ, hTNF 75 µM). Identical samples were prepared with DMSO only, giving a final DMSO concentration of 0.25% for both sets of samples. Alternatively, a fully assembled hTNF/hTNFR1 complex (3 receptors per homotrimer) was formed by incubating hTNF with a 3.2-fold molar excess of hTNFR1 for 1 h at 22 °C. The TNF/TNFR1 complex was then incubated overnight at 4 °C with UCB-5307 at a final concentration range from 90 µM to 690 µM. Samples were subject to analytical size exclusion using HPLC. Injection volumes of 50 µL were separated on a TSK G3000SW L × I.D. 30 cm × 7.5 mm column (10 µm particle size) pre-equilibrated in 10 mM HEPES, pH 7.5, 150 mM NaCl.

TNF (L57F) = biological target: T3, TNF (L57F) (Homo sapiens, UniProt P01375, L133F); assay: HEK reporter gene assay, L57F TNF; format: cell-based; details: 10 pM L57F TNF; HEK NFκΒ reporter
T3 construct: Human TNF (CID2043, UniProt P01375 residues 77–233); 6XHis-Smt3 (N, cleaved yes); host or cells: E. coli
T3 sequence (P01375 77-233 L133F): as the sequence (P01375 77-233 limits assumed) above, with L57F counted along it
Description: Stimulation of HEK-293 cells by TNF leads to activation of the NF-κB pathway. The HEK-Blue^TM CD40L SEAP (secreted embryonic alkaline phosphatase) reporter cell line used to determine TNF activity (InvivoGen, #hkb-CD40, cells were described as mycoplasma free when purchased and were tested using Mycoalert [Lonza] after each batch of assay vial preparation). Compounds were titrated in DMSO and pre-incubated with TNF at a concentration giving half maximal response (10 pM for human or 20 pM for mouse) or the anti-human TNFR1 agonist antibody (R&D Systems. #AF 225) for 1 h. Cells were added to the compound/stimulus mixture and further incubated for 18 h. SEAP was measured using the colorimetric substrate HEK-Blue Detect^TM or QUANTI-Blue^TM from InvivoGen. Percentage inhibitions for compound dilutions were calculated between a DMSO control and maximum inhibition (by excess anti-TNF biologic, or NF-κB inhibitor–TPCA-1 [Tocris #2559, R&D Systems]). The IC50 was determined as the point of inflexion between the fitted minimum and maximum of the compound dose response curve, calculated using 4PL fitted curve. Mean IC50s are reported as a mean of at least two experiments. Dose response curves for TNF and the anti-human TNFR1 agonist antibody are shown in Supplementary Fig. 9. […]
In this assay reduction is luminescence is due to cell killing by TNF and inhibition causes increased luminescence. […]

TNF [1] = biological target: T4, TNF (Homo sapiens, UniProt P01375); assay: Thermal denaturation assay of thermal stability; format: binding; parameters: stabilise an asymmetrical form of the soluble TNF trimer
Description: A fluorescence probed thermal denaturation assay was performed to assess the effect of the compounds on the thermal stability of TNF (or other members of the TNF family) as a measure of compound binding. The reaction mixture contained 5 µL of 30× SYPRO® Orange dye (Invitrogen) and 5 µL of TNF (at 1 mg/mL), 37.5 μL PBS, pH 7.4 and 2.5 μL of compound (at 2 mM in DMSO). The mixture (10 µL) was dispensed in quadruplicate into a 384 PCR optical well plate and was run on a 7900HT Fast Real-Time PCR System ([…]). The PCR System heating device was set at 20 °C to 99 °C with a ramp rate of 1.1 °C min^−1; fluorescence changes in the wells were monitored by a CCD device. The fluorescence intensity increase was plotted as a function of temperature and the Tm calculated as the midpoint of this denaturation curve (determined as the point of inflection).
Target sequence in this assay (P01375 77-233 limits assumed): as the sequence (P01375 77-233 limits assumed) above

TNF [2] = biological target: T4, TNF; assay: TNF reporter gene assay HEK-293, human TNF; format: cell-based; parameters: stabilise an asymmetrical form of the soluble TNF trimer; details: 10 pM wild-type TNF; HEK NFκΒ reporter
Description: Stimulation of HEK-293 cells by TNF leads to activation of the NF-κB pathway. The HEK-Blue^TM CD40L SEAP (secreted embryonic alkaline phosphatase) reporter cell line used to determine TNF activity (InvivoGen, #hkb-CD40, cells were described as mycoplasma free when purchased and were tested using Mycoalert [Lonza] after each batch of assay vial preparation). […] Cells were added to the compound/stimulus mixture and further incubated for 18 h. SEAP was measured using the colorimetric substrate HEK-Blue Detect^TM or QUANTI-Blue^TM from InvivoGen. […] The IC50 was determined as the point of inflexion between the fitted minimum and maximum of the compound dose response curve, calculated using 4PL fitted curve. Mean IC50s are reported as a mean of at least two experiments.
Target sequence in this assay (P01375 77-233 limits assumed): as above

TNF [3] = biological target: T4, TNF; assay: Biacore kinetics of binding; parameters: Human TNF (CID2043, UniProt P01375 residues 77–233); 6XHis-Smt3 (N, cleaved yes); host or cells: E. coli TOP10; details: SPR single-cycle, linked TNF with n-terminal HKH tag
Description: Surface plasmon resonance using a Biacore T100/T200 was used to measure the association rate constant (ka), the dissociation rate constant (kd) and the affinity (KD) of compounds. TNF (VCID 2043 Beryllium) was immobilised to approximately 5 kRU as described above and equilibrated for at least 5 h in HBS P + buffer with 5% DMSO. UCB-6876 was serially diluted from 187.5 µM, flowing over the immobilised TNF at 50 µL/min for 3 min before allowing full dissociation under flow for at least 6 min. […] […] The compounds were allowed to dissociate for 2 h under flow.
Target sequence in this assay (P01375 with tags, fused parts or gaps): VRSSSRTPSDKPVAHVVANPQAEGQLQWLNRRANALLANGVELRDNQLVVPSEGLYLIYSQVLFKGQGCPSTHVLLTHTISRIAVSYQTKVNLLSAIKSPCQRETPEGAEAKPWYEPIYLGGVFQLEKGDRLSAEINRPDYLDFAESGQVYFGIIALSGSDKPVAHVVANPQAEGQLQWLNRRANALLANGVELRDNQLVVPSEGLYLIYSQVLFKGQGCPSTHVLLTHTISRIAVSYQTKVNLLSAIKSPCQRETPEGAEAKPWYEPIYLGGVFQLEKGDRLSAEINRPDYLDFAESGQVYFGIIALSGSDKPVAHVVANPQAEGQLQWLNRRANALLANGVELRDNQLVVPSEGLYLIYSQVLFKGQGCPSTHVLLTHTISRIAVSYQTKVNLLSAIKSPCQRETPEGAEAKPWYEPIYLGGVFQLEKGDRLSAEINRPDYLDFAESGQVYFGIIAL

[4] = tested on: TNFR1 extracellular domain and control proteins; assay: Biacore SPR binding to control surfaces; details: capture antibody plus TNFR1, capture antibody
Text: (§1) BIA (Biomolecular Interaction Analysis) uses SPR to measure the binding of compounds to a protein immobilised on a chip surface. For this purpose a Biacore A100/4000 (GE Healthcare) was used. A CM5 sensor was immobilised via amine coupling on flow cell 1 with human Fc antibody domain (10k response units; kRU) and TNFR-Fc captured (2.5 kRU), flow cell 2 TNF (11 kRU), flow cell 3 was left blank (for non-specific binding), flow cell 4 TNFR-Fc (10 kRU), and flow cell 5 goat anti-human Fc 16 kRU). The sensor surface was then equilibrated in HBS-P (10 mM HEPES pH 7.4, 0.15 M NaCl, 0.005% Surfactant P20, BIAcore, GE Healthcare) with 5% DMSO for at least 5 h. Compounds were diluted from 100 mM stocks into DMSO matched buffer and then flowed over the immobilised flow cells at a concentration of 250 µM at the maximum flow rate of 30 μL/min. Background subtraction binding curves were analysed using the Biacore A100 BIA evaluation software version 1.1 following standard procedures.

[5] = Dynamic light scattering (colloidal aggregation); format: physicochemical; details: 100 μM; no detergent; 25°C; n=5
Description: Dynamic light scattering (DLS) experiments have been performed with compounds […]
baseline control and positive control (miconazole at 100 μM) were included. The radius data […]
compound in the absence of detergent.
DLS data (Malvern Nano ZS). Each sample (150 μl) was measured 5 times in a low volume disposable sizing cuvette at 25°C using 173º non-invasive backscatter (NIBS). […]

TNF [6] = biological target: T4, TNF; assay: Biacore SPR fragment binding to immobilised TNF; parameters: Human TNF (CID2043, UniProt P01375 residues 77–233); 6XHis-Smt3 (N, cleaved yes); host or cells: E. coli TOP10; details: SPR fragment screen; concentration-dependent response
Text: as §1
Target sequence in this assay (P01375 77-233): as the sequence (P01375 77-233 limits assumed) above

[7] = biological target: T5, Mouse TNF (mouse), P06804; assay: native MS; mouse and human TNF, each 20 µM in 20 mM ammonium acetate pH 7.4, mixed 1:1 and analysed at various time points; no compound; nanospray, Exactive Plus EMR; details: remark: other sources report otherwise
T5 chain: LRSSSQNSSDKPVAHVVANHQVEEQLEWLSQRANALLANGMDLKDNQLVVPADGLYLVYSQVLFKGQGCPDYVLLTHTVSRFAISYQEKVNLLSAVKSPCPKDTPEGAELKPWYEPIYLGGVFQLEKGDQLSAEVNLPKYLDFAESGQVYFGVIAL

[8] = biological target: T5, Mouse TNF (mouse), P06804; assay: native MS; human TNF pre-incubated (saturated) with UCB-6876, then mixed 1:1 with mouse TNF; 20 mM ammonium acetate, 4% DMSO in the compound stock; various time points; details: remark: other sources report otherwise

Molecule: Etanercept [reference compound]
- CD45+ GR-1+ cells/mL in the peritoneal cavity (mouse TNF): 6123.9 cells/mL and 7203.0 cells/mL and 3131.9 cells/mL and 6069.0 cells/mL and 1965.3 cells/mL

Molecule: Cc1ccc(C)c(Cn2c(C(O)c3ccncc3)nc3ccccc32)c1 (stereo not shown) [UCB-5307]
- number of TNFR1 bound per hTNF trimer, hTNF preloaded with compound (hTNF/hTNFR1 complex; 90-690 μM compound overnight, then 3.2-fold excess hTNFR1): dose-dependent shift from three receptors bound to two
- effect on preformed hTNF/hTNFR1 complex (hTNF/hTNFR1 complex; 90-690 µM compound, 3.2-fold excess hTNFR1): dislodging one of the receptors
- inhibition of L57F TNF (TNF (L57F)): did not inhibit
- Tm difference (hTNF + compound) - (hTNF+DMSO) (TNF [1]; DMSO 5%): 12.2 °C
- Tm (mean ± SD) (TNF [1]; hTNF + DMSO (5%) + compound, n=4 replicates): 72.9 ± 0.6 °C
- Tm1 Average (TNF [1]; inhouse hTNF 5% DMSO + compound, 4 wells): 72.9 °C
- Unreviewed - Tm1 (TNF [1]; single wells, inhouse hTNF 5% DMSO + compound, listed as 1445307-000, in °C): 72.4 and 73.5 and 73.2
- inhibition of wild-type TNF (TNF [2]): inhibited
- kd (off-rate) (TNF [3]): 5.76e-05 s⁻¹
- Kd (TNF [3]; read-out: KD): 9 nM

Molecule: Cc1ccccc1Cn1c(CO)nc2ccccc21 [UCB-6786]
- binding to TNFR1 and control proteins (selectivity) [4]: selectivity over the TNFR1 extracellular domain and control proteins
- colloidal aggregation (DLS radius) [5]: no evidence of colloidal aggregation
- binding to immobilised TNF (TNF [6]): bound to TNF

B1: Mouse TNF, P06804 80-235 (ligand)
chain: LRSSSQNSSDKPVAHVVANHQVEEQLEWLSQRANALLANGMDLKDNQLVVPADGLYLVYSQVLFKGQGCPDYVLLTHTVSRFAISYQEKVNLLSAVKSPCPKDTPEGAELKPWYEPIYLGGVFQLEKGDQLSAEVNLPKYLDFAESGQVYFGVIAL
- stoichiometry N [7]: 3
- stoichiometry N [8]: 3
